Data: patent US8313779B2, “Evaluation method and screening method for substance having action of activating/suppressing innate immunity, agent and food product for activating/suppressing innate immune mechanism and method for producing the same” (Genome Pharmaceuticals Institute Co., Ltd., priority 2007, dated 2012)

Tested on: isolated head muscle specimen of the silkworm larva
Test: Inhibition of induced muscular contraction in the isolated head muscle specimen of the silkworm larva (pre-injection of test substance, then inducer)
Assay type: in vivo, silkworm (Bombyx mori) larva
Method: The experiment using kainic acid (0.2 mM) in place of peptideglycan was carried out as a control experiment. It has been known that kainic acid is an agonist of a glutamic acid receptor and induces the muscular contraction by strongly binding to a glutamine receptor to excessively stimulate the nerve. It has been already known that the muscular contraction induced by kainic acid is inhibited by L-glutamic acid.
The experiment using kainic acid (0.2 mM) in place of BmPP was carried out as the control experiment.
As the control experiment, 0.9% NaCl in place of the rabbit antiserum against BmPP was injected.

| Structure (SMILES) | inhibition of muscular contraction induced by BmPP (N-acetylcysteine 200 mM, 0.05 mL pre-injected, 0.4 μg/mL BmPP (FIG. 6)) | inhibition of muscular contraction induced by kainic acid (N-acetylcysteine 200 mM, 0.05 mL pre-injected, 0.2 mM kainic acid (FIG. 6)) | inhibition of muscular contraction induced by air (N-acetylcysteine 200 mM, 0.05 mL pre-injected, 0.05 mL of air (FIG. 6)) | inhibition of muscular contraction induced by H2O2 (N-acetylcysteine 200 mM, 0.05 mL pre-injected, 125 mM H2O2 (FIG. 6)) | inhibition of muscular contraction induced by peptideglycan (N-acetylcysteine 200 mM, 0.05 mL pre-injected, peptideglycan = autoclaved Staphylococcus aureus (FIG. 6)) | inhibition of muscular contraction induced by BmPP (L-glutamic acid 40 mM, 0.05 mL pre-injected, then BmPP (FIG. 4)) | inhibition of muscular contraction induced by kainic acid (L-glutamic acid 40 mM, 0.05 mL pre-injected, kainic acid 0.2 mM (FIG. 2)) | inhibition of muscular contraction induced by peptideglycan (L-glutamic acid 40 mM, 0.05 mL pre-injected, peptideglycan 0.5 mg/mL or 5 mg/mL, 0.05 mL (FIG. 2)) | inhibition of muscular contraction induced by β-glucan (L-glutamic acid pre-injected) |
| --- | --- | --- | --- | --- | --- | --- | --- | --- | --- |
| CC(=O)N[C@@H](CS)C(=O)O [N-acetylcysteine] | no inhibitory effect | no inhibitory effect | inhibited | inhibited | inhibited |  |  |  |  |
| N[C@@H](CCC(=O)O)C(=O)O [L-glutamic acid] |  |  |  |  |  | not inhibited | inhibited | not inhibited | not inhibited |
